Reference: US20240100006A1, “COMPOSITIONS AND METHODS USING AT LEAST ONE GLYCINE OR DERIVATIVE THEREOF AND AT LEAST ONE LARGE NEUTRAL AMINO ACID AND/OR CATIONIC AMINO ACID OR PRECURSOR THEREOF” (SOCIETE DES PRODUITS NESTLE S.A., priority 2020, published 2024)
Entries after “also recorded” stand apart in the source; their conditions may differ.

Tested on: isolated mitochondria from skeletal muscle of zebrafish
Assay: Acute oxidative stress and mitochondrial high-resolution respirometry
Type: in vivo
Experimental: Following the stress, fish were divided into controls and treatment groups. […] Fish exposed to the glycine and glucose treatment were incubated in water containing the compound of interest for 2 h at 28° C. at the following doses: 50, 200, 450 μM (Sigma-Aldrich) for glycine; 500 μM and 5 mM (Sigma-Aldrich) for glucose; 450 μM for glycine, arginine and methionine (Sigma-Aldrich). […] After BCA quantification of protein concentration, 150 μg of crude extract were used for high-resolution respirometry quantification. […] Up to three 02k instruments ([…]) were used in parallel. Experiments were performed at 28° C. in modified MiR05 (110 mM sucrose, 0.5 mM EGTA, 3 mM MgCl2, 20 mM taurine, 10 mM KH2PO4, 20 mM HEPES and 0.1% BSA essentially fatty acid free). Respiration of isolated mitochondria was determined using substrate-uncoupler-inhibitor titration (SUIT) protocols (Pesta and […], Methods Mol Biol. 2012; 810:25-58) with modifications. […] CI respiration was calculated as the difference between total respiration (CI+CII) and the addition of CI inhibitor rotenone (0.5 μM); CII respiration was calculated as the difference between inhibited CI respiration and the addition of CII inhibitor malonic acid (5 mM). Total respiration (CI+CII, Tot resp) was assessed as the difference of the respiration in presence of all substrates and the total inhibition of CI and CII.

Row | Structure (SMILES) | mitochondrial respiration (O2 consumption; Complex I dependent respiration) after acute oxidative stress (adult AB zebrafish, 3 μM menadione 2 h at 28° C., then compound in water 2 h, glycine 50, 200, 450 μM, glucose 500 μM and 5 mM, FIG. 3, n=3 per condition) | Complex I dependent respiration (acute oxidative stress inducer, 3 μM in water for 2 h at 28° C., FIG. 3)
1 | NCC(=O)O [glycine] | restores respiratory levels; also recorded: able to restore mitochondrial respiration | –
2 | CC1=CC(=O)c2ccccc2C1=O [menadione, Menadione, reference compound] | – | decreasing Complex I dependent respiration
